Experimental data as given in patent US8039619B2, “Process for preparing (2R,3S/2S,3R)-2-(2,4-difluorophenyl)-3-(5-fluoropyrimidin-4-yl)-1-(1H-1,2,4-triazol-1-yl)butan-2-ol” (Dr. Reddy's Laboratories Limited, priority 2004, dated 2011).
Converted amounts (≈) assume the structure as drawn.

Experiment: Solubility comparison at room temperature
Assay type: physicochemical
Details: organic solvent or mixture
Description: Solubility comparison at room temperature (values in mg/l): […]

- solubility (Acetone): 250 µg/mL (≈ 716 µM)
- solubility (Methanol): 125 µg/mL (≈ 358 µM)
SMILES: C[C@@H](c1ncncc1F)[C@](O)(Cn1cncn1)c1ccc(F)cc1F [Crystalline Form B, (2R,3S)-2-(2,4-diflurophenyl)-3-(5-fluoropyrimidin-4-yl)-1-(1H-1,2,4-triazol-1-yl) -butan-2-ol]
